# Test results: patent US7256219B2, “Multifluoro-substituted chalcones and analogs as activators of caspases and inducers of apoptosis and the use thereof” (Cytovia, Inc., priority 2001, dated 2007)
# What was measured:
# T-47D cells [1] = assay: Caspase cascade activation (N-(Ac-DEVD)-N'-ethoxycarbonyl-R110 fluorogenic substrate) in T-47D cells; assay type: cell-based, Human; settings: 24 h incubation; for Caspase activity Ratio (net RFU of test compound to that of control): 0.016 to 10 μM final; for EC50: Homo sapiens, T47D, read-out: Caspase potency EC50
# Description: (§1) Human breast cancer cell lines T-47D and ZR-75-1 were grown according to media component mixtures designated by American Type Culture Collection+10% FCS (Invitrogen Corporation, Life Technologies Division), in a 5% CO2-95% humidity incubator at 37° C. T-47D and ZR-75-1 cells were maintained at a cell density between 50 and 80% confluency at a cell density of 0.1 to 0.6×10^6 cells/ml. Cells were harvested at 600×g and resuspended at 0.65×10^6 cells/ml into appropriate media+10% FCS. An aliquot of […] of cells was added to a well of a 96-well microtiter plate containing 2.5 μl of a 10% DMSO in RPMI-1640 media solution containing 0.16 to 100 μM of 1-[2,5-bis(2,2,2-trifluoroethoxy)phenyl]-3-[4-(trifluoromethyl)phenyl]-2-propen-1-one or other test compound (0.016 to 10 μM final). An aliquot of 22.5 μl of cells was added to a well of a 384-well microtiter plate containing 2.5 μl of a 10% DMSO in RPMI-1640 media solution without test compound as the control sample. The samples were mixed by agitation and then incubated at 37° C. for 24 h in a 5% CO2-95% humidity incubator. After incubation, the samples were removed from the incubator and 25 μl of a solution containing 14 μM of N-(Ac-DEVD)-N′-ethoxycarbonyl-R110 (SEQ. ID NO:1) fluorogenic substrate (Cytovia, Inc.; WO99/18856), 20% sucrose (Sigma), 20 mM DTT (Sigma), 200 mM NaCl (Sigma), 40 mM Na PIPES buffer pH 7.2 (Sigma), and 500 μg/ml lysolecithin (Calbiochem) was added. The samples were mixed by agitation and incubated at room temperature. Using a fluorescent plate reader (Model SpectraMax Gemini, Molecular Devices), an initial reading (T=0) was made approximately 1-2 min after addition of the substrate solution, employing excitation at 485 nm and emission at 530 nm, to determine the background fluorescence of the control sample. After the 3 h incubation, the samples were read for fluorescence as above (T=3 h).
# (§2) The Relative Fluorescence Unit values (RFU) were used to calculate the sample readings as follows: RFU(T=3h)−Control RFU(T=0)=Net RFU(T=3h)
# (§3) The activity of caspase cascade activation was determined by the ratio of the net RFU value for 1-[2,5-bis(2,2,2-trifluoroethoxy)phenyl]-3-[4-(trifluoromethyl)phenyl]-2-propen-1-one or other test compound to that of control samples. The EC50 (nM) was determined by a sigmoidal dose-response response calculation (Prism 2.0, GraphPad Software Inc.).
# ZR-75-1 cells = assay: Caspase cascade activation (N-(Ac-DEVD)-N'-ethoxycarbonyl-R110 fluorogenic substrate) in ZR-75-1 cells; assay type: cell-based, Human; settings: ZR-75-1, 24 h incubation; for EC50: Homo sapiens, read-out: Caspase potency EC50; for Caspase activity Ratio (net RFU of test compound to that of control): 0.016 to 10 μM final
# Description: as §1, §2, §3
# T-47D = assay: Inhibition of cell proliferation (GI50), T-47D; assay type: cell-based; settings: Homo sapiens, T47D, 48 h
# Description: (§4) All the cell lines were grown according to the conditions recommended by American Type Culture Collection. An aliquot of 90 μl of cells (2.2×10^4 cells/ml) was added to a well of a 96-well microtiter plate containing 10 μl of a 10% DMSO in RPMI-1640 media solution containing 1 nM to 100 μM of 1-[2,5-bis(2,2,2-trifluoroethoxy)phenyl]-3-[4-(trifluoromethyl)phenyl]-2-propen-1-one (0.1 nM to 10 μM final). An aliquot of 90 μl of cells was added to a well of a 96-well microtiter plate containing 10 μl of a 10% DMSO in RPMI-1640 media solution without compound as the control sample for maximal cell proliferation (AMax). The samples were mixed by agitation and then incubated at 37° C. for 48 h in a 5% CO2-95% humidity incubator. After incubation, the samples were removed from the incubator and 20 μl of CellTiter 96 AQUEOUS One Solution Cell Proliferation™ reagent (Promega) was added. […] Using an absorbance plate reader (Model 1420 Wallac Instruments), an initial reading (T=0) was made approximately 1-2 min after addition of the solution, employing absorbance at 490 nm. This determines the possible background absorbance of the test compounds. No absorbance for 1-[2,5-bis(2,2,2-trifluoroethoxy)phenyl]-3-[4-(trifluoromethyl)phenyl]-2-propen-1-one was found at 490 nm. After the 2-4 h incubation, the samples were read for absorbance as above (ATest). […]
# SK-Br-3 = assay: Inhibition of cell proliferation (GI50), SK-Br-3; assay type: cell-based; settings: Homo sapiens, SK-BR-3, 48 h
# Description: as §4
# MDA-MB-435 = assay: Inhibition of cell proliferation (GI50), MDA-MB-435; assay type: cell-based; settings: Homo sapiens, MDA-MB-435, 48 h
# Description: as §4
# MCF-7 = assay: Inhibition of cell proliferation (GI50), MCF-7; assay type: cell-based; settings: Homo sapiens, MCF7; MCF-7, 48 h
# Description: as §4
# PC-3 = assay: Inhibition of cell proliferation (GI50), PC-3; assay type: cell-based; settings: Homo sapiens, PC-3, 48 h
# Description: as §4
# HeLa = assay: Inhibition of cell proliferation (GI50), HeLa; assay type: cell-based; settings: Homo sapiens, 48 h
# Description: as §4
# DLD-1 = assay: Inhibition of cell proliferation (GI50), DLD-1; assay type: cell-based; settings: Homo sapiens, DLD-1, 48 h
# Description: as §4
# K562 = assay: Inhibition of cell proliferation (GI50), K562; assay type: cell-based; settings: Homo sapiens, K562, 48 h
# Description: as §4
# PANC-1 = assay: Inhibition of cell proliferation (GI50), PANC-1; assay type: cell-based; settings: Homo sapiens, PANC-1, 48 h
# Description: as §4
# T-47D cells [2] = assay: Cell cycle arrest and apoptosis in T-47D cells (propidium iodide flow cytometry); assay type: cell-based, Human; settings: 10 μM
# Description: T-47D, a breast cancer cell line, was maintained and harvested as described in Example 23. […] As a control, cells were also incubated with equivalent amount of solvent (DMSO). Cells were harvested at 1,200 rpm and then transferred to 12×75 mm polystyrene tubes. Cells were then resuspended in 500 μl of 1% Na Citrate, 0.1% Triton X-100, and 50 μg/ml of propidium iodide and incubated at room temperature for 30 min followed by flow cytometer analysis. All flow cytometry analyses were performed on FACScalibur (Becton Dickinson) using Cell Quest analysis software. The x-axis plotted the amount of fluorescence and the y-axis is plotted the number of cells with the indicated fluorescence. […] An increase from 13% to 33% in the sub-diploid DNA content of cells (FIG. 1) is also seen with compound treatment. The sub-diploid amount of DNA is indicative of apoptotic cells which have undergone DNA degradation or fragmentation.
EC50 (T-47D cells [1]),EC50 (ZR-75-1 cells),GI50 (T-47D),GI50 (SK-Br-3),GI50 (MDA-MB-435),GI50 (MCF-7),GI50 (PC-3),GI50 (HeLa),GI50 (DLD-1),GI50 (K562),GI50 (PANC-1),SMILES,Caspase activity Ratio (net RFU of test compound to that of control) (T-47D cells [1]),Caspase activity Ratio (net RFU of test compound to that of control) (ZR-75-1 cells),"sub-diploid DNA content of cells (M1) (T-47D cells [2]; T47D, 24 h, FIG. 1B legend)","G2/M DNA content cells (T-47D cells [2]; T-47D, FIG. 1B)","sub-diploid DNA content of cells (T-47D cells [2]; T-47D, control 13%)"
5000 nM,6000 nM,1500 nM,1800 nM,3200 nM,2400 nM,3000 nM,2300 nM,2500 nM,2200 nM,3100 nM,"O=C(C=Cc1ccc(C(F)(F)F)cc1)c1cc(OCC(F)(F)F)ccc1OCC(F)(F)F [Example 4, 1-[2,5-Bis(2,2,2-trifluoroethoxy)phenyl]-3-[4-(trifluoromethyl)phenyl]-2-propen-1-one]",25.2,5.5,increase of sub-diploid DNA content of cells,increase in G2/M DNA content cells,33%
1600 nM,5400 nM,,,,,,,,,,"O=C(C=Cc1ccccc1)c1cc(OCC(F)(F)F)ccc1OCC(F)(F)F [Example 3, 1-[2,5-Bis(2,2,2-trifluoroethoxy)phenyl]-3-phenyl-2-propen-1-one]",6.8,3.3,,,
6800 nM,6900 nM,,,,,,,,,,"O=C(C=Cc1ccc([N+](=O)[O-])cc1)c1cc(OCC(F)(F)F)ccc1OCC(F)(F)F [Example 15, 1-[2,5-Bis(2,2,2-trifluoroethoxy)phenyl]-3-(4-nitrophenyl)-2-propen-1-one]",20.4,14.9,,,
